In patent publication US9765092B2, “Tricyclic piperidine compounds” (ACTELION PHARMACEUTICALS LTD, priority 2013, dated 2017) one finds IC50 data, which are given here for 24 molecules.

This experiment deals with human TPH1 (Homo sapiens (Human), UniProt P17752). The experiment in a line: Biochemical in vitro assay using fluorescence readout (TPH1 inhibition).
The mark [1] stands for this setting: human TPH1, fluorescence readout.
The mark [2] stands for this setting: full length human TPH1, 40 μM L-tryptophan, 15° C., 60 minutes, fluorescence at 540 nm, mean if determined several times.

Sequence of human TPH1 (P17752 whole entry): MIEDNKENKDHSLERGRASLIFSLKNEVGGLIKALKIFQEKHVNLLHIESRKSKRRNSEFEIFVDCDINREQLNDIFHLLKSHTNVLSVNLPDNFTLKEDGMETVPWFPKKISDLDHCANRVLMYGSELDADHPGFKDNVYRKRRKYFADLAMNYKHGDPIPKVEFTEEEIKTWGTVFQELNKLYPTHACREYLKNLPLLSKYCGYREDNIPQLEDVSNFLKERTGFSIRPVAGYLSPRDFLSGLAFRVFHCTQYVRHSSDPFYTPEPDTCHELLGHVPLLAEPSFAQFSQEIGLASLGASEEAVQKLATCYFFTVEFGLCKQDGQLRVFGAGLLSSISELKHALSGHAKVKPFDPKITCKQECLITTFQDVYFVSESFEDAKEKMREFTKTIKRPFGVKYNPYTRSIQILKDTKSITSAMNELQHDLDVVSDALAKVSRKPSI

With `Cc1ccc(OCC(=O)N2CCc3nc4sc(C)nn4c3C2c2ccc(C3CC3)cc2F)c(C)n1` (stereo not drawn) [Example 1.6.3, 1-(5-(4-cyclopropyl-2-fluorophenyl)-2-methyl-7,8-dihydro-[1,3,4]thiadiazolo[2′,3′:2,3]imidazo[4,5-c]pyridin-6(5H)-yl)-2-((2,6-dimethylpyridin-3-yl)oxy)ethanone], the IC50 (as a rule, the midpoint of a concentration-inhibition curve) under setting [1] was found to be 13 nM.
The molecule `Cc1nn2c3c(nc2s1)CCN(C(=O)COc1ccc(NS(C)(=O)=O)nc1Cl)C3c1sccc1F` (stereo not drawn) [Example 1.23.4, N-(6-chloro-5-(2-(5-(3-fluorothiophen-2-yl)-2-methyl-7,8-dihydro-[1,3,4]thiadiazolo[2′,3′:2,3]imidazo[4,5-c]pyridin-6(5H)-yl)-2-oxoethoxy)pyridin-2-yl)methanesulfonamide] registered an IC50 under setting [1] of 7 nM.
In turn, `Cc1nn2c3c(nc2s1)CCN(C(=O)COc1ccc(N2CCOCC2)nc1Cl)C3c1cc(C(C)(C)O)cs1` (stereo not drawn) [Example 1.20.1, 2-((2-chloro-6-morpholinopyridin-3-yl)oxy)-1-(5-(4-(2-hydroxypropan-2-yl)thiophen-2-yl)-2-methyl-7,8-dihydro-[1,3,4]thiadiazolo[2′,3′:2,3]imidazo[4,5-c]pyridin-6(5H)-yl)ethanone] gave an IC50 under setting [1] of 12 nM.
Regarding `O=C(COc1cccc(C(F)(F)F)c1Cl)N1CCc2nc3sccn3c2C1c1cnn(-c2ccccc2)c1` (stereo not drawn) [Example 6.13.1, 2-(2-chloro-3-(trifluoromethyl)phenoxy)-1-(5-(1-phenyl-1H-pyrazol-4-yl)-7,8-dihydrothiazolo[2′,3′:2,3]-imidazo[4,5-c]pyridin-6(5H)-yl)ethanone], under setting [1], it took 75 nM to reach half-maximal inhibition (IC50).
On the same count and under the same terms, then `CS(=O)(=O)Nc1ccc(OCC(=O)N2CCc3nc4sccn4c3C2c2sccc2F)c(Cl)n1` (stereo not drawn) [Example 6.8.4, N-(6-chloro-5-(2-(5-(3-fluorothiophen-2-yl)-7,8-dihydrothiazolo[2′,3′:2,3]imidazo[4,5-c]pyridin-6(5H)-yl)-2-oxoethoxy)pyridin-2-yl)methanesulfonamide], with 7 nM.
As to `Cc1nn2c3c(nc2s1)CCN(C(=O)COc1ccc(N2CC(F)(F)C2)nc1Cl)C3c1cnc(N(C)C)s1` (stereo not drawn) [Example 1.22.8, 2-((2-Chloro-6-(3,3-difluoroazetidin-1-yl)pyridin-3-yl)oxy)-1-(5-(2-(dimethylamino)-thiazol-5-yl)-2-methyl-7,8-dihydro-[1,3,4]thiadiazolo[2′,3′:2,3]imidazo[4,5-c]pyridin-6(5H)-yl)ethanone], under setting [2], the IC50 is 19 nM.
`Cc1nn2c3c(nc2s1)CCN(C(=O)COc1ccc(N(C)C)nc1Cl)C3c1cnc(N(C)C)s1` (stereo not drawn) [Example 1.22.2, 2-((2-Chloro-6-(dimethylamino)pyridin-3-yl)oxy)-1-(5-(2-(dimethylamino)thiazol-5-yl)-2-methyl-7,8-dihydro[1,3,4]thiadiazolo[2′,3′:2,3]imidazo[4,5-c]pyridin-6(5H)-yl)ethanone] yielded a half-inhibitory concentration (IC50) under setting [2] of 25 nM.
Under setting [1], `Cc1nn2c3c(nc2s1)CCN(C(=O)COc1ccc(C(=O)N(C)C)nc1Cl)C3c1ccc(C(F)(F)F)cc1F` (stereo not drawn) [Example 1.56.1, 6-chloro-5-(2-(5-(2-fluoro-4-(trifluoromethyl)phenyl)-2-methyl-7,8-dihydro-[1,3,4]thiadiazolo[2′,3′:2,3]imidazo[4,5-c]pyridin-6(5H)-yl)-2-oxoethoxy)-N,N-dimethylpicolinamide] came in with an IC50 of 15 nM.
Same read-out and setting: then `Cc1nn2c3c(nc2s1)CCN(C(=O)COc1ccc(N2CCOCC2)nc1Cl)C3c1cncs1` (stereo not drawn) [Example 1.39.3, 2-((2-chloro-6-morpholinopyridin-3-yl)oxy)-1-(2-methyl-5-(thiazol-5-yl)-7,8-dihydro-[1,3,4]thiadiazolo[2′,3′:2,3]imidazo[4,5-c]pyridin-6(5H)-yl)ethanone], with 5 nM; and `CCc1nc(NS(C)(=O)=O)ccc1OCC(=O)N1CCc2nc3sc(C(F)(F)F)nn3c2C1c1ncc(C)cc1F` (stereo not drawn) [Example 5.2.2, N-(6-ethyl-5-(2-(5-(3-fluoro-5-methylpyridin-2-yl)-2-(trifluoromethyl)-7,8-dihydro-[1,3,4]thiadiazolo[2′,3′:2,3]imidazo[4,5-c]pyridin-6(5H)-yl)-2-oxoethoxy)pyridin-2-yl)methanesulfonamide], with 42 nM; and `Cc1nn2c3c(nc2s1)CCN(C(=O)COc1ccc(NS(C)(=O)=O)nc1Cl)C3c1ccc(C2CC2)cc1F` (stereo not drawn) [Example 1.6.26, N-(6-chloro-5-(2-(5-(4-cyclopropyl-2-fluorophenyl)-2-methyl-7,8-dihydro-[1,3,4]thiadiazolo[2′,3′:2,3]imidazo[4,5-c]pyridin-6(5H)-yl)-2-oxoethoxy)pyridin-2-yl)methanesulfonamide], with 12 nM.
Turning to `Cc1nn2c3c(nc2s1)CCN(C(=O)COc1ccc(N2CCOCC2)nc1Cl)C3c1ccc(CN(C)C)s1` (stereo not drawn) [Example 1.36.1, 2-((2-Chloro-6-morpholinopyridin-3-yl)oxy)-1-(5-(5-((dimethylamino)-methyl)thiophen-2-yl)-2-methyl-7,8-dihydro-[1,3,4]thiadiazolo[2′,3′:2,3]imidazo[4,5-c]pyridin-6(5H)-yl)-ethanone], under setting [2], half-maximal inhibition (IC50) required 384 nM.
`COc1ccc(C2c3c(nc4sccn34)CCN2C(=O)COc2ccc(CN3CCOCC3)nc2Cl)c(F)c1` (stereo not drawn) [Example 6.3.2, 2-((2-chloro-6-(morpholinomethyl)pyridin-3-yl)oxy)-1-(5-(2-fluoro-4-methoxyphenyl)-7,8-dihydrothiazolo-[2′,3′:2,3]imidazo[4,5-c]pyridin-6(5H)-yl)ethanone] came in with an IC50 under setting [1] of 9 nM.
Under setting [1], `Cc1nn2c3c(nc2s1)CCN(C(=O)COc1ccc(C#N)nc1Cl)C3c1sc(C(=O)N(C)C)cc1F` (stereo not drawn) [Example 1.24.4, 5-(6-(2-((2-chloro-6-cyanopyridin-3-yl)oxy)acetyl)-2-methyl-5,6,7,8-tetrahydro-[1,3,4]thiadiazolo[2′,3′:2,3]imidazo[4,5-c]pyridin-5-yl)-4-fluoro-N,N-dimethylthiophene-2-carboxamide] displayed an IC50 of 46 nM.
As to `COC1(c2cnc(C3c4c(nc5sc(C)nn45)CCN3C(=O)COc3ccc(N4CCOCC4)nc3Cl)s2)COC1` (stereo not drawn) [Example 1.65.1, 2-((2-chloro-6-morpholinopyridin-3-yl)oxy)-1-(5-(5-(3-methoxyoxetan-3-yl)thiazol-2-yl)-2-methyl-7,8-dihydro-[1,3,4]thiadiazolo[2′,3′:2,3]imidazo[4,5-c]pyridin-6(5H)-yl)ethanone], 208 nM corresponded to half-maximal inhibition under setting [1] (IC50).
For `CCc1nc(C)ccc1OCC(=O)N1CCc2nc3sccn3c2C1c1c(C)nn(C)c1C` (stereo not drawn) [Example 6.15.1, ((2-ethyl-6-methylpyridin-3-yl)oxy)-1-(5-(1,3,5-trimethyl-1H-pyrazol-4-yl)-7,8-dihydrothiazolo-[2′,3′:2,3]imidazo[4,5-c]pyridin-6(5H)-yl)ethanone], the IC50 under setting [1] came out at 149 nM.
On to `Cc1nn2c3c(nc2s1)CCN(C(=O)COc1ccc(N2CCOCC2)nc1Cl)C3c1sc(C(=O)N(C)C)cc1F` (stereo not drawn) [Example 1.24.1, 5-(6-(2-((2-chloro-6-morpholinopyridin-3-yl)oxy)acetyl)-2-methyl-5,6,7,8-tetrahydro-[1,3,4]thiadiazolo[2′,3′:2,3]imidazo[4,5-c]pyridin-5-yl)-4-fluoro-N,N-dimethylthiophene-2-carboxamide], for which the IC50 under setting [1] was found to be 2 nM.
`CNC(=O)c1ccc(C2c3c(nc4sc(C)nn34)CCN2C(=O)COc2ccc(N3CCOCC3)nc2Cl)o1` (stereo not drawn) [Example 1.42.2, 5-(6-(2-((2-chloro-6-morpholinopyridin-3-yl)oxy)acetyl)-2-methyl-5,6,7,8-tetrahydro-[1,3,4]thiadiazolo[2′,3′:2,3]imidazo[4,5-c]pyridin-5-yl)-N-methylfuran-2-carboxamide]: the IC50 under setting [1] is 11 nM.
The same measure, in the same setting: as for `Cc1ccccc1OCC(=O)N1CCc2nc3sccn3c2C1c1cnn(-c2ccccc2)c1` (stereo not drawn) [Example 6.13.4, 1-(5-(1-phenyl-1H-pyrazol-4-yl)-7,8-dihydrothiazolo-[2′,3′:2,3]imidazo[4,5-c]pyridin-6(5H)-yl)-2-(o-tolyl-oxy)ethanone], the figure is 236 nM.
The molecule `Cc1nn2c3c(nc2s1)CCN(C(=O)COc1cccnc1Cl)C3c1sc(C(=O)N(C)C)cc1F` (stereo not drawn) [Example 1.24.5, 5-(6-(2-((2-chloropyridin-3-yl)oxy)acetyl)-2-methyl-5,6,7,8-tetrahydro-[1,3,4]thiadiazolo[2′,3′:2,3]imidazo[4,5-c]pyridin-5-yl)-4-fluoro-N,N-dimethylthiophene-2-carboxamide] came in with a half-maximal inhibitory concentration (IC50) under setting [1] of 64 nM.
As to `Cc1nn2c3c(nc2s1)CCN(C(=O)COc1ccc(NS(C)(=O)=O)nc1Cl)C3c1sc(C(F)(F)F)nc1C` (stereo not drawn) [Example 1.76.1, N-(6-chloro-5-(2-(2-methyl-5-(4-methyl-2-(trifluoromethyl)thiazol-5-yl)-7,8-dihydro-[1,3,4]thiadiazolo[2′,3′:2,3]imidazo[4,5-c]pyridin-6(5H)-yl)-2-oxoethoxy)pyridin-2-yl)methanesulfonamide], inhibition under setting [1] was half-maximal at 20 nM (IC50).
The same measure, in the same setting: as for `Cc1nn2c3c(nc2s1)CCN(C(=O)COc1ccc(N(C)S(C)(=O)=O)nc1Cl)C3c1ccc(Cl)cc1F` (stereo not drawn) [Example 1.4.48, N-(6-chloro-5-(2-(5-(4-chloro-2-fluorophenyl)-2-methyl-7,8-dihydro-[1,3,4]thiadiazolo[2′,3′:2,3]imidazo[4,5-c]pyridin-6(5H)-yl)-2-oxoethoxy)pyridin-2-yl)-N-methylmethanesulfonamide], the figure is 10 nM; as for `Cc1nn2c3c(nc2s1)CCN(C(=O)COc1cc(F)cnc1Cl)C3c1ncc(C2CC2)cc1F` (stereo not drawn) [Example 1.14.7, 2-((2-chloro-5-fluoropyridin-3-yl)oxy)-1-(5-(5-cyclopropyl-3-fluoropyridin-2-yl)-2-methyl-7,8-dihydro-[1,3,4]thiadiazolo [2′,3′:2,3]imidazo[4,5-c]pyridin-6(5H)-yl)ethanone], 25 nM; as for `O=C(COc1cccnc1Cl)N1CCc2nc3sccn3c2C1c1ccc(C(F)F)cc1F` (stereo not drawn) [Example 6.16.3, 2-((2-chloropyridin-3-yl)oxy)-1-(5-(4-(difluoromethyl)-2-fluorophenyl)-7,8-dihydrothiazolo[2′,3′:2,3]imidazo[4,5-c]pyridin-6(5H)-yl)ethanone], 15 nM.
